What was measured:
C2C12 cells [1] = assay: Western blot of phosphorylated Smad 2 and AKT in TGF-β1-treated C2C12 cells; type: cell-based, murine; conditions: TGF-β1-treated versus untreated cells, whole-cell lysates
Experimental: (§1) C2C12 cells were plated onto 6-well plates at a 2×10^5 density and 24 h later transfected with either negative control siRNA (Negative Control No. 1 siRNA, Life Technologies) or custom siRNAs targeting S1P (Silencer Select siRNAs, Life Technologies) using Lipofectamine RNAiMAX as per manufacturer's instructions. After 48 h, cells were either harvested for gene expression analysis or differentiated with DMEM supplemented with 2% horse serum. Two days after differentiation, cells were harvested for gene expression analysis. For TGF-β1 treatment studies, three days post-differentiation, cells were treated with 50 ng/ml TGF-β1 (R&D) for 5 h then harvested for downstream endpoints.
Skeletal muscle whole protein lysates were generated by homogenizing tissues in lysis buffer (20 mM Tris, 15 mM NaCl, 1 mM EDTA, 0.2% NP-40, and 10% glycerol) supplemented with 2× Protease Complete cocktail tablet (Roche) and 1× Phosphatase Inhibitors (Roche, Mannheim, Germany) with stainless steel beads in a TissueLyzer II (Qiagen). Protein lysates were rotated for 45 min at 4° C., followed by centrifugation at 15,000×g for 15 min at 4° C. Protein was quantified by bicinchoninic acid assay (BCA, Pierce Biotechnology), equal amounts of protein were resolved on a 4-15 SDS-PAGE gradient gel (Bio-Rad), and transferred to PVDF-FL membrane (MilliporeSigma). […]

C2C12 cells [2] = assay: MSS51 expression by qPCR in C2C12 cells treated with vehicle or TGF-β1; type: cell-based, murine; conditions: scrambled and S1P-depleted C2C12 cells, 50 ng/ml for 5 h, versus vehicle
Experimental: Total RNA was isolated from C2C12 cells, skeletal muscle, heart, adipose, kidney, and liver with RNA STAT-60 (Tel-Test Inc) as per manufacturer's instructions. For tissues, RNA was isolated by disrupting tissue in RNA STAT-60 using […] (Qiagen) and a TissueLyser II (Qiagen). RNA was reverse transcribed into cDNA using the High-Capacity cDNA Reverse Transcription Kit (Applied Biosystems). Quantitative real-time PCR was performed using Power SYBR green (Applied Biosystems) and transcripts quantified on an ABI QuantiStudio 3 sequence detection system (Applied Biosystems). Data was normalized to 36B4 expression, unless otherwise noted, and results analyzed using the 2^−ΔΔCt method and reported as relative units to controls.
as §1, with “For TGF-β1 treatment studies, three days post-differentiation, cells were treated with 50 ng/ml TGF-β1 (R&D) for 5 h then harvested for downstream endpoints.” left out

## TGF-β1: recombinant TGF-β1 (R&D) used to treat C2C12 cells
C2C12 cells [1]
  Smad 2 phosphorylation induced by TGF-β1: induced
C2C12 cells [2]
  MSS51 expression in the presence of TGF-β1: increased

Reference: patent US20240043842A1, “MUSCLE RETENTION IN AGING AND DUCHENNE MUSCULAR DYSTROPHY (DMD) THROUGH S1P INHIBITION” (Washington University, priority 2022, published 2024)
